What is called IC50 is the concentration that inhibits the measured activity by half.

Molecules are shown by their SMILES.

The test system of one data set is Huh-Luc-Neo cells. In words: Cell Titer-Glo Cell Viability Assay. It counts as cell-based, human. The method, then: (§1) Day 2, Reagent Preparation and Luciferase Assay: The Bright-Glo Luciferase Assay Buffer (Promega) is thawed and equilibrated to room temperature prior to use. The lyophilized Bright-Glo Luciferase Assay Substrate is equilibrated to room temperature prior to use. 10 ml of Bright-Glo Luciferase Assay Buffer is transferred to 1 vial of Bright-Glo Luciferase Assay Substrate bottle and mixed by gently with a Vortex. 100 ul of Bright-Glo Luciferase Assay reagent (Bright-Glo Luciferase Assay Buffer+Bright-Glo Luciferase Assay Substrate Mixture) is added to each well. The well contents are mixed for 5 min. on an orbital shaker at room temperature to induce cell lysis and the luminescence is then measured using a luminometer. The data is analyzed and IC50s are determined using GraphPad Prism 4 software. Hits validated in the Replicon Luciferase assay have IC50s<8.0 μM and show <30% inhibition of Cell Viability at a compound concentration of 100 μM (Cell Titer Glow Assay, cell viability assay conditions identical to HCV Replicon Luciferase Assay conditions).
(§2) Day 3, Quantitative PCR Based Measurement of HCV RNA (Taqman Assay): Quantitative PCR analysis to measure HCV RNA expression from cDNA synthesized on Day 2 is performed using the ABI 9700 HT Sequence Detection System (Applied Biosystems) as previously described (Lohman et al, Science 285, 110-113, 1999). The data is analyzed and IC50s are determined using GraphPad Prism 4 software. Hits validated in the Replicon RNA Assay have IC50s<8.0 μM and show <30% inhibition of Cell Viability at a compound concentration of 50 μM (Cell Titer Glow Assay, cell viability assay conditions identical to HCV Replicon RNA Assay conditions).
Day 0, Cell Seeding and Compound Treatment: Huh-Luc-Neo Cells are seeded at 25,000/well in an opaque-walled 96 plate with Growth Medium (DMEM phenol red free+PS+2 mM glutamine; 100 ul/well).
Day 2, Reagent Preparation and Assay: The CellTiter-Glo Buffer is thawed and equilibrated to room temperature prior to use. The lyophilized CellTiter-Glo Substrate is equilibrated to room temperature prior to use. 10 ml of CellTiter-Glo Buffer is transferred to 1 vial of CellTiter-Glo Substrate and mixed by gently with a Vortex. 100 μl of CellTiter-Glo Assay reagent (CellTiter-Glo Buffer+CellTiter-Glo Substrate Mixture) is added to each well. The well contents are mixed for 5 min. on an orbital shaker at room temperature to induce cell lysis and the luminescence is then measured using a luminometer.
A general note: Cellular ATP, detected with luciferase, serves as a proxy for viable cell number.

Data set [1] has as its system HCV Replicon (HCV IRES driven luciferase reporter) in Huh-Luc-Neo cells. In words: HCV Replicon Luciferase Assay. The conditions noted are these: Hepatitis C virus, 48 h, Huh-Luc-Neo cells, no unit printed in table (b301 gives IC50s in μM), read-out: Luciferase IC50. Type of data set: cell-based. As for the experimental part:
(§3) The identification of inhibitors of HCV replication and/or proliferation has been facilitated by the development of a cell based system to study HCV replication and assay for HCV inhibitors. Inhibition of HCV replication may be performed using the HCV Replicon Assay developed in the laboratories of Bartenschlager (Lohman et al, Science 285, 110-113, 1999) and Rice (Blight et al, Science 290, 1972-1974, 2000). The assay is performed using the Huh-Luc-Neo cell line (Lohman et al, Science 285, 110-113, 1999). Huh-Luc-Neo cells are a human hepatoma cell line (Huh-7) stably expressing a bi-cistronic subgenomic replicon containing the HCV IRES in which the […] of HCV had been deleted and replaced by a construct containing sequences coding for the firefly luciferase reporter gene, the neomycin selectable marker and the EMCV IRES to direct expression of a truncated HCV genome expressing the […] NS3, NS4A, NS4B, NS5A, and NS5B. HCV targets through which inhibitors could act to inhibit replication include the NS3 protease, the helicase/ATPase, NS5A, the NS5B-RNA dependent RNA polymerase, and the HCV IRES.
(§4) Expression of HCV IRES driven luciferase reporter activity and HCV RNA is measured to obtain indirect and direct measures of replication of HCV RNA respectively. Inhibitors of HCV replication and/or proliferation are determined by initially identifying molecules that inhibit expression of the HCV IRES driven luciferase reporter in this HCV Replicon Luciferase Assay. Cell viability assays and control cell based luciferase assays are then run on hits identified in the HCV Replicon Luciferase Assay to eliminate cytoxic compounds and non-specific compounds which act by inhibiting the luciferase enzyme.
Day 0, Cell Seeding and Compound Treatment: Huh-Luc-Neo Cells are seeded at 25,000/well in an opaque-walled 96 plate with Growth Medium (DMEM phenol red free+PS+2 mM glutamine; 100 μl/well). The compounds to be tested are added to the experimental wells (10 μl/well at 10× assay concentration) and the cells are then incubated (5% CO2, 37° C.) for 48 h.
as §1
For orientation: In antiviral work, replicon cells carry a viral genome segment that copies itself.

Data set [2] deals with HCV RNA (HCV Replicon) in Huh-Luc-Neo cells. Briefly: HCV Replicon RNA Assay (Taqman quantitative PCR). It counts as cell-based. The note with it: Hepatitis C virus, 48 h, 2 compound treatments over 48 h, no unit printed in table (b307 gives IC50s in μM). The method, then: as §3, §4
Day 0, Cell Seeding and Compound Treatment: Huh-Luc-Neo Cells are seeded at 25,000/well in an opaque-walled 96 plate with Growth Medium (DMEM phenol red free+PS+2 mM glutamine; 100 μl/well). The compounds to be tested are added to the experimental wells (10 μl/well at 10× assay concentration) and the cells are then incubated (5% CO2, 37° C.).
Day 1, Media Change and Compound Treatment: 24 hours after the initial compound treatment the cell culture media is aspirated from the wells and fresh Growth Medium is added (DMEM phenol red free+PS+2 mM glutamine; 100 μl/well). The compounds to be tested are then added to the appropriate experimental wells (10 μl/well at 10× assay concentration) and the cells are then incubated (5% CO2, 37° C.) for an additional 24 hrs.
Day 2, RNA Isolation and cDNA Synthesis: The cells are washed with 1× Phosphate Buffered Saline (PBS) once.
as §2

In the case of `Cn1cc(-c2ccc(O)c(-c3nn(C)cc3C#CC(C)(C)C)c2)cn1` [VQ_95538], the “Toxicity % Inhibition at 50 μM (2 doses)” value with Huh-Luc-Neo cells (inhibition of cell viability at 50 μM, 2 doses, conditions identical to HCV Replicon RNA Assay) came to 6.1%. The “Toxicity % Inhibition at 100 μM (1 dose)” value in the data set with Huh-Luc-Neo cells (inhibition of cell viability at 100 μM, 1 dose, conditions identical to HCV Replicon Luciferase Assay (48 h)) was determined as 24.3%. Also, the results for the IC50 in data set [1] and in data set [2] were 9.8 µM and 1.35 µM, respectively.

The record behind these values is patent publication US8329703B2, “Pyrazole compounds” (XTL Biopharmaceuticals Ltd., priority 2005, dated 2012).
